Values quoted from earlier work in patent publication US6638535B2, “Modified release formulations containing a hypnotic agent” (Synthon BV, priority 2000, dated 2003).

Conditions: in therapy, after ingestion of the commercial immediate release tablet

SMILES: Cc1ccc(-c2nc3ccc(C)cn3c2CC(=O)N(C)C)cc1 [zolpidem, N,N,6-trimethyl-2-(4-methylphenyl)-imidazo[1,2-s]pyridine-3-acetamide]
- duration of action (action lasts): 4 to 6 h
- onset of action (starts acting) ('or even earlier'): 15 to 30 min
